Measurements as given in patent US5436273A, “Psychoactive propargylamine derivatives used in the treatment of anxiety, psychotic states or aggression” (Lowchol Scientific, Inc., priority 1993, dated 1995).
Read-outs that look alike come from different tables or passages of the source.

How the values were obtained:
[1] = tested on: exploratory behavior in rats; test: Inhibition of exploratory behavior in rats (hole poking); type: in vivo, Sprague-Dawley rats; details: for ED50: Rattus norvegicus, ip, 0.5 h, read-out: dose required to diminish by 50% the exploratory behavior
Method: 8. Inhibition of Exploratory Behavior in Rats (Hole Poking).
This test is done with Sprague-Dawley male rats of about 300 g. Activity is evaluated with a […] XYZ activity cage connected to a […] […] DCM-4. A perforated plate (16 holes of 2-5 cm diameter) is placed in the enclosure and on the activity case to register vertical activity. The number of times the rat placed his snout into the holes during a 10 minute period is recorded. The test was started 30 minutes after the interperitoneal injection of the compound to be studied.
The results which are reported in Table 8 are expressed in terms of the dose required to diminish by 50% the exploratory behavior, with reference to animals injected with the carrier only. Diazepam and buspirone are used as standards.

[2] = tested on: righting reflex / ethanol narcosis in mice; test: Potentiation of sleeping time induced by ethanol in mice; type: in vivo, CD #1 mice
Method: 7. Potentiation of Sleeping Time Induced by Ethanol in Mice
This test was done with male CD #1 mice of 25-35 g. The mice are injected intraperitoneally (8 mice per dose). A subhypnotic dose of ethanol (12 ml/kg of 50% ethanol solution) is administered orally 30 minutes later.
The loss of the righting reflex is evaluated, for each animal, 30 minutes after the administration of the alcohol. It is considered that there is a potentialization of ethanol narcosis if the righting time exceeded 30 seconds.
The results which are reported in Table 7 are expressed in terms of the percentage of animals displaying a loss of the righting reflex versus the administered dose. Chlorpromazine (5 mg/kg i.p.) is used as a standard.

[3] = tested on: spontaneous motor activity in mice; test: Inhibition of spontaneous motor activity in mice; type: in vivo, CD #1 mice; details: for ED50: Mus musculus, ip, 0.5 h
Method: 4. Inhibition of Spontaneous Motor Activity in Mice
Female CD #1 mice (20-30 g) are used for this experiment. The effect of the compound to be studied on spontaneous activity was evaluated by an automated […] XYZ system. This system allows the simultaneous quantification of the following parameters:
number of stereotypic movements;
number of vertical movements;
number of clockwise revolutions; and
number of counterclockwise revolutions.
(§1) Two animals are studied simultaneously, one treated and one control. After a 2 hour period of acclimatization to the room, a first activity count of 10 minutes duration is perfomed. The compound to be studied is then administered i.p. and the spontaneous activity is reevaluated 30 minutes later over a period of 10 minutes.

[4] = tested on: conditioned avoidance response in rats; test: Inhibition of conditioned avoidance response in rats; type: in vivo, Sprague Dawley rats
Text: 6. Inhibition of Conditioned Avoidance Response in Rats
Male Sprague Dawley rats (200-250 g) are trained to avoid an electric foot shock, by continuously changing room with the appropriate visuals and auditory signals, in an automatic 2-way conditioned avoidance apparatus (Coulbourn Instrument Co.). Only the animals that perform at least a 70% avoidance (3 successive training sessions) are kept for the experiment.
The day of the experiment, the selected animals are submitted to a pre-treatment control session. The compound to be studied is then administered i.p. and the animals are placed back in the apparatus for evaluation 30 minutes later. Diazepam was used as a standard.

[5] = tested on: spontaneous motor activity in rats; test: Inhibition of spontaneous motor activity in rats; type: in vivo, Sprague Dawley rats; details: for ED50: Rattus norvegicus, ip, 0.5 h, i.p., 30 minutes
Method: as §1
5. Inhibition of Spontaneous Motor Activity in Rats
The method is the same as described above for mice, except that because of the size of the animals (Sprague Dawley rats; 300 g), the test and control animals are not evaluated simultaneously, but alternatively.

[6] = Acute toxicity test; details: mouse, in vivo
Method: CD #1 mice (20-30 g) are used for this test. The animals are individualy housed in glass beakers for a 2 hour period of acclimatization without food and water.

[7] = Effect on body temperature, buspirone in rats; type: in vivo, Sprague Dawley rats
Method: Female CD #1 mice (20-30 g) are used. Rectal temperature is recorded before and one hour after s.c. administration of the compound to be studied (N=8/doses×4 doses). The solvent used is sterile water for intravenous injection.
The results which are reported in Table 9 are expressed in terms of the variation of temperature for different doses. Buspirone was tested on Sprague Dawley rats.

[8] = Rotarod neurotoxicity test in mice; details: mouse; for TD50 at 0.5 h: in vivo, ip
[9] = in vivo; details: mouse, ip
[10] = tested on: isolation induced aggressive behavior in mice; test: Inhibition of isolation induced fighting behavior in mice; type: in vivo, CD #1 mice; details: for ED50: Mus musculus, ip, 0.5 h, read-out: ED50 (dose that suppressed aggressive behavior in 50% of the animals); for inhibition of aggressive behavior (in words): mice
Method: 1. Inhibition of Isolation Induced Fighting Behavior in Mice
After this period of confinement, the animals usually develop a marked intraspecific aggressive behavior when they are placed in the same cage.
The compound to be studied is administered i.p. to the selected groups (N=8 pairs/dose×5 doses) and the aggressive behavior is tested again 30 minutes later. […] A one week washout period is allowed between treatments.

[11] = i.p., 30 minutes after administration, probit analysis

O=C1CC2(CCCC2)CC(=O)N1CCCCN1CCN(c2ncccn2)CC1 [Buspirone, reference compound]
ED50 ([1]; i.p., 30 minutes, rats): 2.8 ± 0.6 mg/kg
inhibition of exploratory behavior (in words) ([1]; rats): more potent, in this respect, than diazepam but they rapidly lose their ability to produce this effect after the first administration
potentiation of ethanol (in words) ([2]; subhypnotic dose of ethanol, mice): more effective than compound N^o 3
inhibition of spontaneous motor activity (in words) [3]: inhibit spontaneous motor activity in mice and rats
ED50 ([3]; i.p., 30 minutes, read-out: ED50, clockwise revolutions): 17.9 ± 6.9 mg/kg
ED50 ([3]; i.p., 30 minutes, read-out: ED50, horizontal activity): 20.5 ± 16.7 mg/kg
ED50 ([3]; i.p., 30 minutes, read-out: ED50, movement time): 19.9 ± 8.9 mg/kg
ED50 ([3]; i.p., 30 minutes, read-out: ED50, stereotypy time): 22.7 ± 13.7 mg/kg
ED50 ([3]; i.p., 30 minutes, read-out: ED50, total distance): 22.6 ± 15.8 mg/kg
ED50, counterclockwise revolutions ([3]; i.p., 30 minutes): no dose-response
ED50, number of movements ([3]; i.p., 30 minutes): no dose-response
ED50, number of stereotypic movements ([3]; i.p., 30 minutes): no dose-response
ED50, vertical activity ([3]; i.p., 30 minutes): no dose-response
ED50, vertical movements ([3]; i.p., 30 minutes): no dose-response
ED50, vertical time ([3]; i.p., 30 minutes): no dose-response
inhibition of conditioned avoidance response (in words) ([4]; rats): inhibit conditioned avoidance in rats, but are less active than diazepam
inhibition of spontaneous motor activity (in words) [5]: inhibit spontaneous motor activity in mice and rats
ED50 ([5]; read-out: ED50, clockwise revolutions): 2.3 ± 0.9 mg/kg
ED50 ([5]; read-out: ED50, counterclockwise revolutions): 2.9 ± 0.7 mg/kg
ED50 ([5]; read-out: ED50, horizontal activity): 2.7 ± 0.8 mg/kg
ED50 ([5]; read-out: ED50, movement time): 3.2 ± 0.6 mg/kg
ED50 ([5]; read-out: ED50, number of movements): 5.3 ± 0.9 mg/kg
ED50 ([5]; read-out: ED50, number of stereotypic movements): 3.1 ± 0.8 mg/kg
ED50 ([5]; read-out: ED50, stereotypy time): 1.7 ± 0.6 mg/kg
ED50 ([5]; read-out: ED50, total distance): 2.8 ± 0.7 mg/kg
LD50 ([6]; po, read-out: LD50): 622 mg/kg
Temp. Difference from Control ([7]; dose 10, Sprague Dawley rats): -2.7
Temp. Difference from Control ([7]; dose 30, Sprague Dawley rats): -3.6
Temp. Difference from Control ([7]; dose 100, Sprague Dawley rats): -5.8
TD50 ([8]; rotarod, po): 135 mg/kg

CN(C)CCCN1c2ccccc2Sc2ccc(Cl)cc21 [Chlorpromazine, reference compound]
percentage of animals displaying a loss of the righting reflex ([2]; 5 mg/kg i.p., with ethanol): 100%

CC(N)C#Cc1ccc(Cl)cc1 (centres unmarked) [Compound 1, 2-Amino-4-(p-chlorophenyl)-3-butyne]
LD50 ([6]; ip, probit analysis): 130 mg/kg
TD50 at 0.5 h [9]: ~65 mg/kg
ED50 [10, 11]: 12 mg/kg
inhibition of aggressive behavior (in words) ([10]; i.p.): particularly potent inhibitors

CC(N)C#Cc1ccc(C#N)cc1 (centres unmarked) [Compound 2, 2-Amino-4-(p-cyanophenyl)-3-butyne]
LD50 ([6]; ip, probit analysis): > 100 mg/kg
TD50 at 0.5 h [9]: > 100 mg/kg
ED50 [10, 11]: 8 mg/kg
inhibition of aggressive behavior (in words) ([10]; i.p.): particularly potent inhibitors

CN(CC#Cc1cccc(C(F)(F)F)c1)Cc1ccccc1 [Compound 5]
LD50 ([6]; ip): 416 mg/kg
TD50 at 0.5 h [9]: 334 mg/kg
ED50 [10, 11]: 28 mg/kg

CC(C#Cc1cccc(C(F)(F)F)c1)N(C)C (centres unmarked) [Compound 7]
LD50 ([6]; ip): 220 mg/kg
TD50 at 0.5 h [9]: 153 mg/kg
ED50 [10, 11]: 38 mg/kg

FC(F)(F)c1cccc(C#CCNCCc2ccccc2)c1 [Compound 9]
LD50 ([6]; ip): 252 mg/kg
TD50 at 0.5 h [9]: 126 mg/kg
ED50 [10, 11]: 58 mg/kg

C(#Cc1ccccc1)CN1CCCCC1 [Compound 11]
LD50 ([6]; ip): 188 mg/kg
TD50 at 0.5 h [9]: 132 mg/kg
ED50 [10, 11]: 27 mg/kg

CC(C)NC(C)C#Cc1ccccc1 (centres unmarked) [Compound 13]
LD50 ([6]; ip, probit analysis): 120 mg/kg
ED50 [10, 11]: 27 mg/kg

FC(F)(F)c1cccc(C#CCNc2ccco2)c1 [Compound 15]
LD50 ([6]; ip): 351 mg/kg
TD50 at 0.5 h [9]: 193 mg/kg
ED50 [10, 11]: 19 mg/kg

CC(C#Cc1ccccc1)NCc1ccccc1 (centres unmarked) [Compound 16]
LD50 ([6]; ip): 309 mg/kg
TD50 at 0.5 h [9]: 170 mg/kg
ED50 [10, 11]: 101 mg/kg

CC(C#Cc1cccc(C(F)(F)F)c1)NCc1ccccc1 (centres unmarked) [Compound 17]
LD50 ([6]; ip): 366 mg/kg
TD50 at 0.5 h [9]: 123 mg/kg
ED50 [10, 11]: 50 mg/kg

CC(C#Cc1ccccc1)Nc1ccco1 (centres unmarked) [Compound 18]
LD50 ([6]; ip, probit analysis): ~300 mg/kg
ED50 [10, 11]: 64 mg/kg

CC(C#Cc1cccc(C(F)(F)F)c1)Nc1ccco1 (centres unmarked) [Compound 19]
ED50 [10, 11]: 73 mg/kg

CC(N)C#Cc1ccc([N+](=O)[O-])cc1 (centres unmarked) [Compound 20]
LD50 ([6]; ip): 152 mg/kg
TD50 at 0.5 h [9]: ~120 mg/kg
ED50 [10, 11]: 10 mg/kg

CC(N)C#Cc1ccc(C(=O)N(C)C)cc1 (centres unmarked) [Compound 21]
LD50 ([6]; ip, probit analysis): < 100 mg/kg

CC(N)C#Cc1ccc(C(N)=O)cc1 (centres unmarked) [Compound 22]
LD50 ([6]; ip, probit analysis): > 100 mg/kg

COc1ccc(C#CC(C)N)cc1 (centres unmarked) [Compound 23]
LD50 ([6]; ip, probit analysis): > 100 mg/kg
ED50 [10, 11]: 24 mg/kg

CC(N)C#Cc1cccc(Cl)c1 (centres unmarked) [Compound 24]
LD50 ([6]; ip): > 100 mg/kg
TD50 at 0.5 h [9]: 50 mg/kg

CCC(N)C#Cc1ccccc1 (centres unmarked) [Compound 25]
LD50 ([6]; ip): 84 mg/kg
TD50 at 0.5 h [9]: ≥ 84 mg/kg
ED50 [10, 11]: 16 mg/kg

NCC#Cc1ccccc1 [Compound 26]
LD50 ([6]; ip, probit analysis): ≥ 100 mg/kg

CCNCC#Cc1ccccc1 [Compound 27]
LD50 ([6]; ip): 98 mg/kg
TD50 at 0.5 h [9]: 88 mg/kg
ED50 [10, 11]: 17 mg/kg

CC(N)C#Cc1ccccc1 (centres unmarked) [Compound 30]
LD50 ([6]; ip): 66 mg/kg
TD50 at 0.5 h [9]: ~50 mg/kg
ED50 [10, 11]: 15 mg/kg

CNC(C)C#Cc1ccccc1 (centres unmarked) [Compound 31]
LD50 ([6]; ip, probit analysis): 95 mg/kg
TD50 at 0.5 h [8]: ≥ 95 mg/kg
ED50 [10]: 12 mg/kg

CCNC(C)C#Cc1ccccc1 (centres unmarked) [Compound 32]
LD50 ([6]; ip, probit analysis): 120 mg/kg
TD50 at 0.5 h [8]: ≥ 120 mg/kg
ED50 [10]: 23 mg/kg

CCN(CC)C(C)C#Cc1ccccc1 (centres unmarked) [Compound 33]
LD50 ([6]; ip): 88 mg/kg
TD50 at 0.5 h [9]: ≥ 88 mg/kg
ED50 [10, 11]: 44 mg/kg

C#CC(C)NC (centres unmarked) [Compound 34]
LD50 ([6]; ip, probit analysis): 828 mg/kg
ED50 [10, 11]: 26 mg/kg

C#CC(C)N(C)C (centres unmarked) [Compound 35]
ED50 [10, 11]: 92 mg/kg

C#CC(C)(C)N [Compound 36]
LD50 ([6]; ip): 779 mg/kg
TD50 at 0.5 h [9]: 391 mg/kg
ED50 [10, 11]: 176 mg/kg

CN1C(=O)CN=C(c2ccccc2)c2cc(Cl)ccc21 [Diazepam]
ED50 [1]: 14.2 ± 5 mg/kg
conditioned avoidance response ([4]; 5 mg/kg i.p.): 57.5%
